Test: Relaxometric properties: longitudinal relaxivity r1p in human plasma
Assay type: physicochemical
Conditions: 37° C.
Protocol: The relaxometric properties of some representative complex compounds according to the invention have been determined at different magnetic field strengths, e.g. including 0.47 and 1.41 T, at 37° C. and in different media (physiologic solution and human plasma) and compared with relaxivity values measured, at the same conditions, for some Gd-Complex of the market having an analogous cyclic coordination cage.
The longitudinal water proton relaxation rate (R1=1/T1) was measured at 0.47 T with a Minispec MQ-20 spectrometer (Bruker Biospin, Germany) operating at a proton Larmor frequency of 20 MHz; MR experiments at 1.41 T were performed using a Minispec MQ-60 spectrometer (Bruker Biospin, Germany) operating at a proton Larmor frequency of 60 MHz.
All test articles were used as supplied and diluted in the selected medium (physiologic solution or human plasma) by weighting the required amount of paramagnetic chelated complex to get a 5 or 10 mM starting solution.
Five different concentration samples (0.1, 0.25, 0.5, 0.75 and 1 mM) for each medium have been prepared by further dilution of the starting 5 or 10 mM solution.
Relaxivity measurements were performed at 0.47 T and 1.41 T at a preset temperature sample of 37° C., kept constant by means of a thermostatic bath connected to the sample holder of the spectrometer. The five sample solutions have been preliminary pre-heated at 37° C. in an external thermostatic bath and then left 10 minutes inside the internal bath to assure the stabilization of the temperature. Longitudinal relaxation time T1 was measured by means of a standard inversion recovery sequence, where the inversion time (TI) was varied from 10 ms to at least 5 times T1 in 15 steps. Statistical analysis (mono-exponential fitting for T1 measurement, linear fitting for the evaluation of longitudinal relaxivity) was performed by Mathematica® (Wolfram, USA). Errors on the estimated parameters were evaluated by the fitting procedure.

Compound	r1p in human plasma (0.47 T) [mM⁻¹ s⁻¹]	r1p in human plasma (1.41 T) [mM⁻¹ s⁻¹]
O=C(O)CN1CCN(CC(O)COCC(COCC(O)CN2CCN(CC(=O)O)CCN(CP(=O)(O)O)CCN(CC(=O)O)CC2)OCc2ccccc2)CCN(CC(=O)O)CCN(CP(=O)(O)O)CC1 (stereo not drawn)	7.41	6.8
O=C(O)CN1CCN(CC(=O)O)CCN(CC(=O)O)CCN(CC(=O)O)CC1	4.5	3.6
CC(O)CN1CCN(CC(=O)O)CCN(CC(=O)O)CCN(CC(=O)O)CC1 (stereo not drawn) (Gd complex, metal not drawn)	4.9	4.15

From patent US20190167819A1, “CONTRAST AGENTS” (BRACCO IMAGING S.P.A., priority 2016, published 2019)
